Where a name gives a salt, the structure may show the parent alone.

One assay has as its target T1, enolase (AbEnolase) (Acinetobacter baumannii, UniProt A3M5Y1).
T1 construct: gene eno; wild-type enolase gene in pET-30a(+) with an N-terminal His6 tag, purified recombinant
The assay is described as follows: isothermal titration calorimetry ([…] °C, […] protein, […] ENOblock, single-site model, n = […]). The format is binding.

The subject of assay [1] is T2, A. baumannii Ab ATCC 17978.
T2 construct: ATCC 17978
Briefly: microbe, parasite or virus in culture. Also on record: species or system A. baumannii ATCC 17978; Bacterial growth inhibition, OD600, dose-response in 384-well plates, AC50. Conditions: Acinetobacter baumannii, ATCC17978, 24 h. As for the experimental part:
(§1) EU-OPENSCREEN provided a subset of 2,464 bioactive compounds from the ECBL pilot library (EU-OPENSCREEN: European Chemical Biology Library - Pilot Library) as 10 mM stock solutions in 100% DMSO. The library was screened in duplicate at a final concentration of 100 μM per well (1% DMSO). The antibacterial single-concentration HTS and dose–response susceptibility assays were conducted in 384-well plates, with bacterial cell density measured by optical density at 600 nm (OD600). Compounds were distributed in duplicate on separate 384-well microtiter plates using an Echo 550® acoustic [compound left out] handler (Beckman Coulter™, Indianapolis, IN) and inoculated with bacteria to a final concentration of 10^6 CFU/mL, with a total assay volume of 25.25 μL. Plates were incubated with shaking for 24 h at 37 °C. Bacterial growth was measured by reading the OD600 using an EnVision™ microplate reader (Revvity, Waltham, MA). The activity of the compounds was expressed as the percentage of bacterial growth inhibition, and it was calculated using the following normalization: %Inhibition=100×1−(TfSample−TOSample)−(TfBlank−TOBlank)/(TfGrowth−TOGrowth)−(TfBlank−TOBlank) Where, T0 Sample is the absorbance of the strain growth in the presence of compound measured at time zero, Tf Sample is the absorbance of the strain growth in the presence of compound measured at final time, T0 Growth is the absorbance of the strain growth in the absence of compound measured at time zero, Tf Growth is the absorbance of the strain growth in the absence of compound measured at final time, T0 Blank is the absorbance of the broth medium (blank) measured at time zero, Tf Blank: the absorbance of the broth medium (blank) measured at final time; T0 is Time at 0 h and Tf is Time at 24 h. We developed and validated a high-throughput screen assay using 2464 bioactive compounds from the EU-OPENSCREEN pilot library, dispensed in 384-well plates at 100 μM final concentration, and the A. baumannii Ab ATCC 17978 and E. coli ATCC 25922 strains, as well as their respective MDR strains (Ab186 and MCR1^+) (Fig. 1A). We identified 33 compounds ([…] of the total compounds) with inhibitory activity of ≥70% against at least one or both MDR strains of Ab186 and E. coli MCR1^+. […] This compound was active against the Ab ATCC 17978 and E. coli ATCC 25922 strains, with AC50 values of 23.57 μM and 46.86 μM, respectively (Fig. 1C).

The subject of another assay is T3, E. coli ATCC 25922.
T3 construct: ATCC 25922
The assay is described as follows: microbe, parasite or virus in culture. Also on record: Bacterial growth inhibition, OD600, dose-response in 384-well plates, AC50. Particulars: Escherichia coli, ATCC25922, 24 h. As for the experimental part: as §1

T1 sequence (A3M5Y1 whole entry): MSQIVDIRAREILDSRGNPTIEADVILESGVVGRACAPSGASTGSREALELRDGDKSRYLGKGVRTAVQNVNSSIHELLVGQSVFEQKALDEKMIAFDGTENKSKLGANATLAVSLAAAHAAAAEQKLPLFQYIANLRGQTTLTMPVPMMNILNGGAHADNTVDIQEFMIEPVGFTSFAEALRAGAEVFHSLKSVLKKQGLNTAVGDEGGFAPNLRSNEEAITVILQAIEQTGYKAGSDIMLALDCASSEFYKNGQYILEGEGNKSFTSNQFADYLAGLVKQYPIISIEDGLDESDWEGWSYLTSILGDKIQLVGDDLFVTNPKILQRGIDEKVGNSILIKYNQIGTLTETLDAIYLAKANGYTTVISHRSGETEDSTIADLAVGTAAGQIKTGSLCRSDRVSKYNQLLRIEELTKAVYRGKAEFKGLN

At enolase (AbEnolase), `NCCOCCOCCNC(=O)Cc1ccc(Nc2nc(NCc3ccc(F)cc3)nc(NCC3CCCCC3)n2)cc1` [ENOblock] displayed a Kd of 2.9 ± 0.78 µM.

For the compound `O=[N+]([O-])c1ccc(Sc2cccc[n+]2[O-])c2nonc12` [EOS100077, NSC228155], the results for the AC50 (in assay [1]; in the assay with E. coli ATCC 25922) were 32 µM and 19.1 µM, respectively.

For the compound `C[C@H]1CO[C@@H]2Cn3cc(C(=O)NCc4ccc(F)cc4F)c(=O)c(O)c3C(=O)N12` [EOS100194, CABOTEGRAVIR], in assay [1], the AC50 was 113 µM.

For `COc1cc(/C=C/C(O)=C/C(=O)/C=C/c2ccc(O)cc2)ccc1O` [EOS100220, DEMETHOXYCURCUMIN], the values for the AC50 (in assay [1]; in the assay on E. coli ATCC 25922) were 51 µM and 56.1 µM, respectively.

With `NC(=S)N/N=C/c1ncccc1N` [EOS100248, TRIAPINE], the AC50 in assay [1] stood at 65.7 µM; with E. coli ATCC 25922, 101 µM.

For the compound `Cc1nc2c(=O)n(C)c(=O)nc-2n(C)n1` [EOS100293, 3-METHYLTOXOFLAVIN], the AC50 was 14.3 µM in assay [1] and 9.33 µM in the assay with E. coli ATCC 25922.

As for `Oc1c(Cl)cc(Cl)c(Cl)c1Cc1c(O)c(Cl)cc(Cl)c1Cl` [EOS100333, HEXACHLOROPHENE], the values for the AC50 (in assay [1]; in the assay with E. coli ATCC 25922) were 4.77 µM and 37.3 µM, respectively.

As to `Oc1c(I)cc(I)c2cccnc12` [EOS100343, DIIODOHYDROXYQUINOLINE], the AC50 turned out to be 62.8 µM in assay [1] and 55.1 µM with E. coli ATCC 25922.

As for `Cc1c2ccncc2c(C)c2c1[nH]c1ccccc12` [EOS100555, ELLIPTICINE], the AC50 in assay [1] worked out at 48.9 µM; in the assay with E. coli ATCC 25922, 64 µM.

`Cc1ccc2c(Cl)cc(Cl)c(O)c2n1` [EOS100722, CHLORQUINALDOL]: the AC50 in assay [1] was 42.2 µM; with E. coli ATCC 25922, 20.4 µM.

Consider `CC(C)c1cccc(=O)c(O)c1` [EOS100813, HINOKITIOL], for which the values for the AC50 (in assay [1]; with E. coli ATCC 25922) were 41 µM and 48.3 µM, respectively.

For the compound `CCN1CCN(C(c2ccc(C(F)(F)F)cc2)c2ccc3cccnc3c2O)CC1` (centres unmarked) [EOS100820, ML311], the values for the AC50 (in assay [1]; in the assay with E. coli ATCC 25922) were 32.7 µM and 82.9 µM, respectively.

Consider `Oc1cccc2cccnc12` [EOS100874, OXYQUINOLINE], for which the AC50 in assay [1] was 71.9 µM; with E. coli ATCC 25922, 173 µM.

With `COc1ccc(Cc2cnc(N)nc2N)cc1OC` [EOS100884, DIAVERIDINE], the activity with E. coli ATCC 25922 was half-maximal at 1.26 µM (AC50).

Regarding `C=C1c2cccc(O)c2C(=O)C2=C(O)[C@]3(O)C(=O)C(C(N)=O)=C(O)[C@@H](N(C)C)[C@@H]3[C@@H](O)[C@H]12` [EOS100925, METHACYCLINE HYDROCHLORIDE], in the assay with E. coli ATCC 25922, the AC50 came out at 95 µM.

With `Oc1c(Cl)cc(Cl)c2cccnc12` [EOS100951, CHLOROXINE], the AC50 in assay [1] was 7.47 µM; in the assay with E. coli ATCC 25922, 10.1 µM.

Turning to `NCCOCCOCCNC(=O)Cc1ccc(Nc2nc(NCc3ccc(F)cc3)nc(NCC3CCCCC3)n2)cc1` [EOS100979, AP-III-A4(ENOBLOCK)], the results for the AC50 (in assay [1]; in the assay on E. coli ATCC 25922) were 23.6 µM and 46.9 µM, respectively.

For the compound `Cn1cc(C2=C(c3cn(CCCSC(=N)N)c4ccccc34)C(=O)NC2=O)c2ccccc21` [EOS101001, BISINDOLYLMALEIMIDE IX], the AC50 in assay [1] was 48.9 µM; with E. coli ATCC 25922, 109 µM.

With `CC(C)(Cc1ccc2ccccc2c1)NC[C@@H](O)COc1cccc(Cl)c1C#N` [EOS101044, NPS-2143], the AC50 in assay [1] came to 27.2 µM; in the assay on E. coli ATCC 25922, 47.6 µM.

`c1ccc2c(c1)[I+]c1ccccc1-2` [EOS101209, DIPHENYLENEIODONIUM]: the AC50 in assay [1] worked out at 3.09 µM; with E. coli ATCC 25922, 2.02 µM.

`CC(C)C[C@H](NC(=O)[C@H](CCc1ccccc1)NC(=O)CN1CCOCC1)C(=O)N[C@@H](Cc1ccccc1)C(=O)N[C@@H](CC(C)C)C(=O)[C@@]1(C)CO1` [EOS101232, CARFILZOMIB] gave an AC50 in the assay on E. coli ATCC 25922 of 31.4 µM.

In assay [1], `C[C@@H]1CCO[C@H]2Cn3cc(C(=O)NCc4ccc(F)cc4F)c(=O)c(O)c3C(=O)N12` [EOS101330, DOLUTEGRAVIR] showed an AC50 of 21.9 µM. In other words, the double-digit micromolar range.

The compound `CCc1nc(N)nc(N)c1-c1ccc(Cl)cc1` [EOS101458, PYRIMETHAMINE] returned an AC50 in the assay on E. coli ATCC 25922 of 129 µM.

On to `COc1cc(NCc2ccc3nc(N)nc(N)c3c2C)cc(OC)c1OC` [EOS101467, TRIMETREXATE], for which the figures for the AC50 (in assay [1]; in the assay on E. coli ATCC 25922) were 24.1 µM and 1.99 µM, respectively.

`O=S(=O)(NCCNC/C=C/c1ccc(Br)cc1)c1cccc2cnccc12` [EOS101763, H-89 DIHYDROCHLORIDE] displayed an AC50 with E. coli ATCC 25922 of 65.9 µM. This lies in the double-digit micromolar range.

On to `Oc1c(Cl)cc(Cl)cc1Sc1cc(Cl)cc(Cl)c1O` [EOS101771, BITHIONOL], for which the AC50 came to 14.6 µM in assay [1] and 42.9 µM in the assay with E. coli ATCC 25922.

For `C/C(=N\N=C(N)N)c1cc(NC(=O)CCCCCCCCC(=O)Nc2cc(/C(C)=N/N=C(N)N)cc(/C(C)=N/N=C(N)N)c2)cc(/C(C)=N/N=C(N)N)c1` [EOS101827, SEMAPIMOD], the AC50 was 23.2 µM in assay [1] and 7.07 µM in the assay with E. coli ATCC 25922.

`[O-][n+]1ccccc1S` [EOS101921, PYRITHIONE]: the AC50 in assay [1] came to 33.9 µM; in the assay on E. coli ATCC 25922, 17.8 µM.

On to `CCN1/C(=C/c2ccc3ccccc3[n+]2CC)C=Cc2ccccc21` [EOS102018, DECYNIUM 22], for which the AC50 is 54.3 µM in assay [1] and 92.9 µM with E. coli ATCC 25922.

Compound `CN(C)c1ccc(C(=C2C=CC(=[N+](C)C)C=C2)c2ccc(N(C)C)cc2)cc1` [EOS102093, GENTIAN VIOLET] gave an AC50 in assay [1] of 32.7 µM. This counts as double-digit micromolar.

`c1ccc(-c2cccc(-c3ccccn3)n2)nc1` [EOS102213, TERPYRIDINE]: the AC50 in assay [1] worked out at 13.1 µM; in the assay on E. coli ATCC 25922 it was 52.3 µM.

(Values after PMC12686454 (EMBO Molecular Medicine, 2025).)
